Laboratory results published in patent US20120003661A1, “METHODS AND DEVICES FOR THE SELECTIVE DETECTION OF MICROORGANISMS” (C3 JIAN, INC., priority 2010, published 2012).
Entries after “also recorded” stand apart in the source; their conditions may differ. Ends that are not written are not given here.

tested on: S. mutans; experiment: MIC of antimicrobial peptides (Table 4); assay type: cell-based, Streptococcus mutans; settings: not given

Row | Substance | Organism MIC
1 | VYRKRKSILKIYAKLKGWH [K-2] | S. mutans, 12.5 μM
2 | LRKNLRWLF [K-15] | S. mutans, 4 μM
3 | KLFKFLRKHLL [K-10] | S. mutans, 4 μM
4 | GLGRVIGRLIKQIIWRR [K-1] | S. mutans, 25 μM
5 | KILKFLFKQVF [K-11] | S. mutans, 4 μM
6 | KKFKKFKVLKIL [K-18] | S. mutans, 16 μM
7 | GWLKMFKKIIGKFGKF [K-21] | S. mutans, 8 μM
8 | KILKFLFKKVF [K-8] | S. mutans, 4 μM
9 | KILKKLFKFVF [K-12] | S. mutans, 8 μM
10 | GILKKLFTKVF [K-13] | S. mutans, 16 μM
11 | FTRKFLKFLHL [K-17] | S. mutans, 8 μM
12 | LLKLLKLKKLKF [K-19] | S. mutans, 16 μM
13 | LRKFLHKLF [K-14] | S. mutans, 8 μM
14 | FLKFLKKFFKKLKY [K-20] | S. mutans, 8 μM
15 | NYRLVNAIFSKIFKKKFIKF [K-7] | S. mutans, 12.5 μM
16 | GIFKKFVKILYKVQKL [K-22] | S. mutans, 8 μM
17 | FIRKFLKKWLL [K-9] | S. mutans, 4 μM

tested on: A. niger; experiment: MIC of antimicrobial peptides (Table 4); assay type: cell-based, Aspergillus niger; settings: not given

Row | Substance | Organism MIC
18 | LSEMERRRLRKRA-NH2 [PF-529] | A. niger, 50 μM
19 | RRGCTERLRRMARRNAWDLYAEHFY [PF-148] | A. niger, 50 μM

tested on: B. subtilis; experiment: MIC of antimicrobial peptides (Table 4); assay type: cell-based, Bacillus subtilis; settings: B. subtilis

Row | Substance | Organism MIC
20 | LVLRICTDLFTFIKWTIKQRKS [PF-497] | B. subtilis, 50 μM
21 | RRGCTERLRRMARRNAWDLYAEHFY [PF-148] | B. subtilis, 50 μM
22 | VYSFLYVLVIVRKLLSMKKRIERL [PF-499] | B. subtilis, 50 μM
23 | GIVLIGLKLIPLLANVLR [PF-322] | B. subtilis, 50 μM

tested on: S. pneumoniae; experiment: MIC of antimicrobial peptides (Table 4); assay type: cell-based, Streptococcus pneumoniae; settings: not given

Row | Substance | Organism MIC
24 | PDAPRTCYHKPILAALSRIVVTDR [PF-524] | S. pneumoniae, 50 μM
25 | LGLTAGVAYAAQPTNQPTNQPTNQPTNQPTNQPTNQPRW-NH2 [PF-520] | S. pneumoniae, 50 μM
26 | LSEMERRRLRKRA-NH2 [PF-529] | S. pneumoniae, 50 μM
27 | FQKPFTGEEVEDFQDDDEIPTII [PF-437] | S. pneumoniae, 50 μM
28 | VMQSLYVKPPLILVTKLAQQN [PF-511] | S. pneumoniae, 50 μM
29 | ASKQASKQASKQASKQASKQASRSLKNHLL [PF-523] | S. pneumoniae, 50 μM
30 | SFMPEIQKNTIPTQMK [PF-512] | S. pneumoniae, 50 μM
31 | CGKLLEQKNFFLKTR [PF-521] | S. pneumoniae, 50 μM

tested on: bacteria, fungi, and/or yeasts; experiment: not given; assay type: binding; settings: microorganism(s) listed as target(s) of the targeting peptide; wrapped target lists given cell by cell

Row | Substance | Target(s)
32 | RRGCTERLRRMARRNAWDLYAEHFY [PF-148] | S. epidermidis, M. luteus, P. mirabilis,; also recorded: E. coli, P. aeruginosa,; also recorded: C. albicans, MRSA, S. pneumoniae,; also recorded: E. faecalis, C. jeikeium,; also recorded: C. jejuni, M. smegmatis
33 | PF-061 (GYNSYKAVQDVKTHSEEQRVTAKK) | S. epidermidis, S. pneumoniae
34 | 1T-271 (FLIQKFLLIKTFPPYRKKYVVIVSQTGTA) | A. naeslundii, F. nucleatum, P. gingivalis,; also recorded: S. epidermidis, S. gordonii,; also recorded: S. mitis, S. mutans, S. oralis,; also recorded: S. salivarious, S. sanguinis
35 | PF-165 (GPVSVVASLRRGTTVQRHSQNNHNKGKP) | MRSA, C. jejuni
36 | PF-171 (TQVTLCRTW) | S. epidermidis, E. coli, P. aeruginosa,; also recorded: S. pneumoniae
37 | PF-062 (MKKKRINNDILGRMIYSSSIDKRNLYNLKYYE) | S. epidermidis, M. luteus, E. coli,; also recorded: P. aeruginosa, MRSA, S. pneumoniae,; also recorded: E. faecalis, C. jeikeium
38 | PF-048 (LYFAFKKYQERVNQAPNIEY) | S. epidermidis, M. luteus, E. coli,; also recorded: MRSA, C. jeikeium, C. jejuni
39 | PF-173 (AGRTAIVQGGG) | S. epidermidis, M. luteus, P. mirabilis,; also recorded: E. coli, P. aeruginosa,; also recorded: C. albicans, C. jeikeium, C. jejuni
40 | 1T-292 (IINQLNLILLRLMEILIL) | A. naeslundii, F. nucleatum, P. gingivalis,; also recorded: S. epidermidis, S. gordonii,; also recorded: S. mitis, S. mutans, S. oralis,; also recorded: S. salivarious, S. sanguinis
41 | PF-007 (MGIIAGIIKVIKSLIEQFTGK) | S. epidermidis, M. luteus, E. coli,; also recorded: P. aeruginosa, C. albicans,; also recorded: MRSA, S. pneumoniae, E. faecalis,; also recorded: C. jeikeium
42 | PF-631 (LIIYFSKTGNTARATRQI) | yeast and hyphal forms
43 | 1T-295 (KYKLKKIIL) | S. mitis, S. salivarious, S. sanguinis
44 | PF-049 (AYYLKRREEKGK) | S. epidermidis, MRSA, C. jeikeium,; also recorded: C. jejuni
45 | PF-150 (EIQAKGTG) | S. epidermidis, MRSA
46 | 1T-272 (QLAPIDKQLKAVKKIAFYESESTAAKAVTVA) | F. nucleatum, S. mutans, S. oralis,; also recorded: S. sanguinis
47 | TT-307 (NGDKKAKEELDKWDEVIKELNIQF) | F. nucleatum
48 | PF-617 (PMNAAEPE) | yeast and hyphal forms
49 | 1T-293 (HVEDCFLLSNARTTAIHGRANPARGEPRTRSE) | A. naeslundii, F. nucleatum, P. gingivalis,; also recorded: S. epidermidis, S. gordonii,; also recorded: S. mitis, S. mutans, S. oralis,; also recorded: S. salivarious, S. sanguinis
50 | 1T-289 (EPSADIYLSAKDTKT) | F. nucleatum, P. gingivalis, S. gordonii,; also recorded: S. mitis, S. mutans, S. oralis,; also recorded: S. sanguinis

same assay, conditions: microorganism(s) that the targeting peptide binds, as listed in Table 2

Row | Substance | Target(s)
51 | PF-C271 (FFPSYYSIIITYF) | A. naeslundii, F. nucleatum, P. gingivalis,; also recorded: S. mutans, T. denticola
52 | PF-796 (YTQSNIPTAYALMLSNKDSI) | S. mutans
53 | PF-C131 (QWIVAKREIRMHIYCHISVIHVIIFFG) | A. naeslundii, F. nucleatum, P. gingivalis,; also recorded: S. mutans
54 | PF-C142 (DFPPLSFFRRRFHAYTAPIDNFFGANPF) | A. naeslundii, F. nucleatum, P. gingivalis,; also recorded: S. mutans, T. denticola
55 | PF-797 (WYYFDNNGYM) | S. mutans
56 | PF-C088 (DIANNILNSVSERLIIA) | A. naeslundii, F. nucleatum, P. gingivalis,; also recorded: S. mutans, T. denticola

same assay, conditions: microorganism(s) the targeting peptide binds, as listed in Table 2

Row | Substance | Target(s)
57 | 1T-180 (VVFGGGDRLV) | A. naeslundii, F. nucleatum, P. gingivalis,; also recorded: T. denticola, S. gordonii,; also recorded: S. mitis, S. mutans, S. oralis,; also recorded: S. salivarious, S. sanguinis
58 | 1T-69 (ILSQEADRKKLF) | S. mutans, P. aeruginosa
59 | 1T-114 (RQAPGPGLVTITAACSAPGSRSR) | A. naeslundii, P. gingivalis, S. epidermidis,; also recorded: S. gordonii, S. mitis,; also recorded: S. mutans, S. oralis, S. sanguinis
60 | 1T-138 (YPNEYCIFLENLSLEELKEIKAINGETLNLEEIINERKNLKD) | A. naeslundii, F. nucleatum, P. gingivalis,; also recorded: S. epidermidis, S. gordonii,; also recorded: S. mitis, S. mutans, S. oralis,; also recorded: S. salivarious, S. sanguinis
61 | 1T-217 (MLSNVLSRSVVSPNVDIPNSMVILSPLLISISNYH) | F. nucleatum, S. sanguinis
62 | 1T-160 (AQYKYINKLLN) | A. naeslundii, F. nucleatum, P. gingivalis,; also recorded: T. denticola, S. gordonii,; also recorded: S. mitis, S. mutans, S. oralis,; also recorded: S. salivarious, S. sanguinis
63 | 1T-192 (ILVLLALQVELDSKFQY) | S. sanguinis
64 | 1T-57 (RLEYRRLETQVEENPESGRRPMRG) | P. aeruginosa
65 | 1T-30 (GKAKPYQVRQVLRAVDKLETRRKKGGR) | S. aureus, S. epidermidis, C. xerosis,; also recorded: C. striatum, P. aeruginosa
66 | 1T-125 (DAITGGNPPLSDTDGLRP) | S. epidermidis, S. gordonii, S. mutans,; also recorded: S. oralis
67 | 1T-144 (IIELHPKSWTQDWRCSFL) | A. naeslundii, F. nucleatum, P. gingivalis,; also recorded: T. denticola, S. gordonii,; also recorded: S. mitis, S. mutans, S. oralis,; also recorded: S. salivarious, S. sanguinis
68 | 1T-222 (RIEASLISAIMFSMFNAIVKFLQK) | F. nucleatum, S. sanguinis
69 | 1T-168 (ELHRIMSTEKIGAVTKMNFDTAPIMSILPIDIYPKEVGIGS) | A. naeslundii, F. nucleatum, P. gingivalis,; also recorded: S. epidermidis, S. gordonii,; also recorded: S. mitis, S. mutans, S. oralis,; also recorded: S. salivarious, S. sanguinis
70 | 1T-122 (GAIPDPVTHRVDWEEDHQTRPSR) | S. mitis
71 | 1T-176 (PVGDIMSGFLRGANQPRFLLDHISFGS) | A. naeslundii, P. gingivalis, S. epidermidis,; also recorded: S. gordonii, S. mitis,; also recorded: S. mutans, S. oralis, S. salivarious,; also recorded: S. sanguinis
72 | 1T-112 (SDNDGKLILGTSQ) | S. gordonii
73 | 1T-40 (QRVSLWSEVEHEFR) | S. mutans, P. aeruginosa
74 | 1T-132 (YSKKLFEYFYFIIFILIRYLIFYKIIQNKNYYINNIAYN) | A. naeslundii, F. nucleatum, P. gingivalis,; also recorded: S. epidermidis, S. gordonii,; also recorded: S. mitis, S. mutans, S. oralis,; also recorded: S. salivarious, S. sanguinis
75 | 1T-147 (GVENRRFYERDVSKVSMMTSEAVAPRGGSK) | A. naeslundii, F. nucleatum, P. gingivalis,; also recorded: T. denticola, S. gordonii,; also recorded: S. mitis, S. mutans, S. oralis,; also recorded: S. salivarious, S. sanguinis
